Source: patent EP4389751A1, “HETEROCYCLIC COMPOUNDS AND USES THEREOF” (Kumquat Biosciences Inc., priority 2021, dated 2024)
Where two headings read alike, the source gives them in different places.

Legend:
A549 cells = assay: Cell proliferation assay (CellTiter-Glo), K-Ras G12S cells; assay type: cell-based; conditions: for IC50: Homo sapiens; for ratio of IC50 against a G12D cell line to IC50 against a G12S cell line: K-Ras G12D cell line such as GP2D relative to K-Ras G12S cell line such as A549, greater than 1, 2, 3, 4, 5, 10, 15 or even greater, 8640 min
Procedure, shortened: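 A549 cells (K-Ras G12S) in RPMI-1640 with 10% FBS, seeded in standard or ultra-low-attachment plates and dosed next day with a 10-point 3-fold series. Viability read about 6 days later by CellTiter-Glo luminescence. IC50 from four-parameter fit.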

GP2D cells = assay: Cell proliferation assay (CellTiter-Glo), K-Ras G12D cells; assay type: cell-based; conditions: read-out: Inhibition of GP2D Cells (IC50)
Procedure, shortened: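 GP2D (K-Ras G12D) cells seeded in DMEM with 2 mM glutamine and 10% FBS, then dosed next day with a dilution series (e.g., 9-point 3-fold). Viability read by CellTiter-Glo luminescence after about 5 days. IC50 from four-parameter fit.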

K-Ras G12S = molecular target: T1, K-Ras G12S (Homo sapiens, UniProt P01116, G12S); assay: HTRF assay of the K-Ras / SOS1 interaction; assay type: biochemical; conditions: IC50 (against K-Ras G12D) to IC50 (against K-Ras G12S)
T1 construct: made in house; host or cells: E. coli (e.g., BL21 (DE3))
Procedure, shortened: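 GST-K-Ras G12S with anti-GST-Eu donor and His-hSOS1 with anti-6His-XL665 acceptor in ~5 mM HEPES pH 7.4, ~150 mM NaCl, 1 mM DTT, 0.05% BSA, 0.0025% Igepal. Read after ~10 min or longer; IC50 from 665/620 nm ratio, duplicates at 10 µM down to 0.01 µM.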

[1] = A549, A549 cells (K-Ras G12S), bin ≤ 500 nM, read-out: Inhibition of A549 Cells (IC50)
[2] = A549, A549 cells (K-Ras G12S), bin 500 nM to 5 µM, read-out: Inhibition of A549 Cells (IC50)

T1 sequence (P01116 1-188 isoform P01116-2 G12S): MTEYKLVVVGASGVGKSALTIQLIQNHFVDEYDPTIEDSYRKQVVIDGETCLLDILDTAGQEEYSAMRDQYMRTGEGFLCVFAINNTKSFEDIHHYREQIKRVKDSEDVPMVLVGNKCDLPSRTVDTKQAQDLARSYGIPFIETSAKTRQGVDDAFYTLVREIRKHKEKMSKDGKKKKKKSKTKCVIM

Row | SMILES | IC50 (A549 cells; [1]) [nM] | ratio of IC50 against a G12D cell line to IC50 against a G12S cell line (A549 cells) | IC50 (A549 cells; [2]) [nM] | IC50 (GP2D cells; GP2D cells (K-Ras G12D)) [nM] | Ratio of IC50 KRAS G12D vs. IC50 KRAS G12S (K-Ras G12S) | IC50 (A549 cells; A549, read-out: Inhibition of A549 Cells (IC50)) [nM] | IC50 (GP2D cells; GP2d) [nM]
1 | CN1CCC[C@H]1COc1nc(N2CCOC3(CN(C(=O)n4cncn4)C3)C2)c2cc(Cl)c(-c3ccc(F)c4sc(N)c(C#N)c34)c(F)c2n1 [Compound A137, 4-(4-(2-(1H-1,2,4-triazole-1-carbonyl)-5-oxa-2,8-diazaspiro[3.5]nonan-8-yl)-6-chloro-8-fluoro-2-(((S)-1-methylpyrrolidin-2-yl)methoxy)quinazolin-7-yl)-2-amino-7-fluorobenzo[b]thiophene-3-carbonitrile] | ≤ 500 |  |  | 1000 to 10000 | A (A: indicates that the ratio of IC50 against KrasG12D vs. IC50 against KrasG12S is 1-fold or greater) |  | 
2 | N#Cc1c(N)sc2c(F)ccc(-c3c(Cl)cc4c(N[C@H]5C[C@H]6CC[C@@H](C5)N6C(=O)n5cncn5)nc(OC[C@@]56CCCN5C[C@H](F)C6)nc4c3F)c12 [Compound A257, 4-(4-(((1R,3r,5S)-8-(1H-1,2,4-triazole-1-carbonyl)-8-azabicyclo[3.2.1]octan-3-yl)amino)-6-chloro-8-fluoro-2-(((2R,7aS)-2-fluorotetrahydro-1H-pyrrolizin-7 a(5H)-yl)methoxy)quinazolin-7-yl)-2-amino-7-fluorobenzo[b]thiophene-3-carbonitrile] |  |  |  |  | A (A: indicates that the ratio of IC50 against KrasG12D vs. IC50 against KrasG12S is 1-fold or greater) | 500 to 5000 | 1000 to 10000
3 | Cc1nc(C)n(C(=O)N2CC3(C2)CN(c2nc(OC[C@@]45CCCN4C[C@H](F)C5)nc4c(F)c(-c5ccc(F)c6sc(N)c(C#N)c56)c(Cl)cc24)CCO3)n1 [Compound A283, 2-amino-4-(6-chloro-4-(2-(3,5-dimethyl-1H-1,2,4-triazole-1-carbonyl)-5-oxa-2,8-diazaspiro[3.5]nonan-8-yl)-8-fluoro-2-(((2R,7aS)-2-fluorotetrahydro-1H-pyrrolizin-7a(5H)-yl)methoxy)quinazolin-7-yl)-7-fluorobenzo[b]thiophene-3-carbonitrile] | ≤ 500 |  |  | 1000 to 10000 | A (A: indicates that the ratio of IC50 against KrasG12D vs. IC50 against KrasG12S is 1-fold or greater) |  | 
4 | N#CCc1ncn(C(=O)N2CC3(C2)CN(c2nc(OC[C@@]45CCCN4C[C@H](F)C5)nc4c(F)c(-c5ccc(F)c6sc(N)c(C#N)c56)c(Cl)cc24)CCO3)n1 [Compound A110, 2-amino-4-(6-chloro-4-(2-(3-(cyanomethyl)-1H-1,2,4-triazole-1-carbonyl)-5-oxa-2,8-diazaspiro[3.5]nonan-8-yl)-8-fluoro-2-(((2R,7aS)-2-fluorotetrahydro-1H-pyrrolizin-7a(5H)-yl)methoxy)quinazolin-7-yl)-7-fluorobenzo[b]thiophene-3-carbonitrile] | ≤ 500 | greater than 1 |  | 1000 to 10000 | A (A: indicates that the ratio of IC50 against KrasG12D vs. IC50 against KrasG12S is 1-fold or greater) |  | 
5 | COCCN1CCC(Oc2nc(N3CCCCC4(CN(C(=O)n5cncn5)C4)C3)c3cc(Cl)c(-c4ccc(F)c5sc(N)c(C#N)c45)c(F)c3n2)CC1 [Compound A119, 4-(4-(2-(1H-1,2,4-triazole-1-carbonyl)-2,6-diazaspiro[3.6]decan-6-yl)-6-chloro-8-fluoro-2-((1-(2-methoxyethyl)piperidin-4-yl)oxy)quinazolin-7-yl)-2-amino-7-fluorobenzo[b]thiophene-3-carbonitrile] |  |  | 500 to 5000 | 1000 to 10000 | A (A: indicates that the ratio of IC50 against KrasG12D vs. IC50 against KrasG12S is 1-fold or greater) |  | 

Now from value to molecule, other results behind:

Row | IC50 (A549 cells; [1]) [nM] | ratio of IC50 against a G12D cell line to IC50 against a G12S cell line (A549 cells) | IC50 (A549 cells; [2]) [nM] | SMILES | IC50 (GP2D cells; GP2D cells (K-Ras G12D)) [nM] | Ratio of IC50 KRAS G12D vs. IC50 KRAS G12S (K-Ras G12S) | IC50 (A549 cells; A549, read-out: Inhibition of A549 Cells (IC50)) [nM] | IC50 (GP2D cells; GP2d) [nM]
6 | ≤ 500 | greater than 1 |  | N#Cc1c(N)sc2c(F)ccc(-c3c(Cl)cc4c(N5CCC6C5CN6C(=O)n5cncn5)nc(OC[C@@]56CCCN5C[C@H](F)C6)nc4c3F)c12 (stereo partly drawn) [Compound A183, 4-(4-(6-(1H-1,2,4-triazole-1-carbonyl)-2,6-diazabicyclo[3.2.0]heptan-2-yl)-6-chloro-8-fluoro-2-(((2R,7aS)-2-fluorotetrahydro-1H-pyrrolizin-7a(5H)-yl)methoxy)quinazolin-7-yl)-2-amino-7-fluorobenzo[b]thiophene-3-carbonitrile] | ≤ 1000 | A (A: indicates that the ratio of IC50 against KrasG12D vs. IC50 against KrasG12S is 1-fold or greater) |  | 
7 |  |  | 500 to 5000 | Nc1nc2c(-c3c(Cl)cc4c(N5CCN(C(=O)n6cncn6)CC5)nc(OC[C@@]56CCCN5C[C@H](F)C6)nc4c3F)ccc(F)c2s1 [Compound A146, (4-(7-(2-amino-7-fluorobenzo[d]thiazol-4-yl)-6-chloro-8-fluoro-2-(((2R,7aS)-2-fluorotetrahydro-1H-pyrrolizin-7a(5H)-yl)methoxy)quinazolin-4-yl)piperazin-1-yl)(1H-1,2,4-triazol-1-yl)methanone] | ≤ 1000 | A (A: indicates that the ratio of IC50 against KrasG12D vs. IC50 against KrasG12S is 1-fold or greater) |  | 
8 | ≤ 500 |  |  | N#Cc1c(N)sc2c(F)ccc(-c3c(Cl)cc4c(OC5CCCCN(C(=O)n6cncn6)C5)nc(OC[C@@]56CCCN5C[C@H](F)C6)nc4c3F)c12 (stereo partly drawn) [Compound A258, 4-(4-((1-(1H-1,2,4-triazole-1-carbonyl)azepan-3-yl)oxy)-6-chloro-8-fluoro-2-(((2R,7aS)-2-fluorotetrahydro-1H-pyrrolizin-7a(5H)-yl)methoxy)quinazolin-7-yl)-2-amino-7-fluorobenzo[b]thiophene-3-carbonitrile] | ≤ 1000 | A (A: indicates that the ratio of IC50 against KrasG12D vs. IC50 against KrasG12S is 1-fold or greater) |  | 
9 |  | greater than 1 | 500 to 5000 | Nc1nc2c(-c3c(Cl)cc4c(N5CCCC6(CN(C(=O)n7cncn7)C6)C5)nc(OC[C@@]56CCCN5C[C@H](F)C6)nc4c3F)ccc(F)c2s1 [Compound A136, (6-(7-(2-amino-7-fluorobenzo[d]thiazol-4-yl)-6-chloro-8-fluoro-2-(((2R,7aS)-2-fluorotetrahydro-1H-pyrrolizin-7a(5H)-yl)methoxy)quinazolin-4-yl)-2,6-diazaspiro[3.5]nonan-2-yl)(1H-1,2,4-triazol-1-yl)methanone] | 1000 to 10000 | A (A: indicates that the ratio of IC50 against KrasG12D vs. IC50 against KrasG12S is 1-fold or greater) |  | 
10 | ≤ 500 |  |  | Cc1nc(C)n(C(=O)N2CC3(COCCN(c4nc(OC[C@@]56CCCN5C[C@H](F)C6)nc5c(F)c(-c6ccc(F)c7sc(N)c(C#N)c67)c(Cl)cc45)C3)C2)n1 [Compound A185, 2-amino-4-(6-chloro-4-(2-(3,5-dimethyl-1H-1,2,4-triazole-1-carbonyl)-6-oxa-2,9-diazaspiro[3.6]decan-9-yl)-8-fluoro-2-(((2R,7aS)-2-fluorotetrahydro-1H-pyrrolizin-7a(5H)-yl)methoxy)quinazolin-7-yl)-7-fluorobenzo[b]thiophene-3-carbonitrile] | 1000 to 10000 | A (A: indicates that the ratio of IC50 against KrasG12D vs. IC50 against KrasG12S is 1-fold or greater) |  | 
